US9642831B2, “Substituted chromanes and method of use” (AbbVie S.á.r.l., priority 2014, dated 2017)
pEC50: −log10 of the molar value.

Target: F508delCFTR (Homo sapiens, UniProt P13569, DEL508-508)
Assay: Cell Surface Expression-Horse Radish Peroxidase (CSE-HRP) assay
Assay type: cell-based
Parameters: expressed in transfected cells; host or cells: CFBE41o- human lung derived epithelial cell line, doxycycline-inducible
Conditions: CFBE4lo-F508delCFTR-HRP cells; for pEC50: 18-24 hours at 33° C., 8-point curve, highest concentration 20 μM, luminescence readout; for Emax: maximum % activity at any tested concentration, normalized to on-plate positive control (3 μM Example 1)
From the text: Cell Surface Expression-Horse Radish Peroxidase (CSE-HRP) Assay:
A cellular assay for measuring the F508delCFTR cell surface expression after correction with test compounds was developed in human lung derived epithelial cell line (CFBE4lo-) (Veit G et al, (2012) Mol Biol Cell. 23(21): 4188-4202). This was achieved by expressing the F508delCFTR mutation along with a horseradish peroxidase (HRP) in the fourth exofacial loop and then measuring the HRP activity using luminescence readout from these cells, CFBE4lo-F508delCFTR-HRP, that were incubated overnight with the test corrector compounds. Briefly, for this primary assay, the CFBE4lo-F508delCFTR-HRP cells were plated in 384-well plates (Greiner Bio-one; Cat 781080) at 4,000 cells/well along with 0.5 μg/mL doxycycline to induce the F508delCFTR-HRP expression and further incubated at 37° C., 5% CO2 for 72 hours. The test compounds were then added at the required concentrations and further incubated for 18-24 hours at 33° C. The highest concentration tested was 20 μM with an 8-point concentration response curve using a 3-fold dilution. Three replicate plates were run to determine one EC50. All plates contained negative controls (dimethyl sulfoxide, DMSO) and positive controls (3 μM of 3-[(2R,4R)-4-({[1-(2,2-difluoro-1,3-benzodioxol-5-yl)cyclopropyl]carbonyl}amino)-7-methoxy-3,4-dihydro-2H-chromen-2-yl]benzoic acid) as well as on-plate concentration response of the positive control. Post incubation, the plates were washed 5× times with Dulbecco's phosphate buffered saline (DPBS), followed by the addition of the HRP substrate, luminol (50 μL), and measuring the HRP activity using luminescence readout on EnVision® Multilabel Plate Reader (Perkin Elmer; product number 2104-0010). The raw counts from the experiment are analyzed using Accelrys® Assay Explorer v3.3.
Z′ greater than 0.5 was used as passing quality control criteria for the plates.
The Z′ is defined as: 1−[3*SDPositive Control+3*SDNegative Control/Absolute(MeanPositive Control−MeanNegative Control)] wherein “SD” is standard deviation.
The % activity measured at each of the 8 test concentrations of the test compound was normalized to the on-plate positive control using the following formula: % activity=[(test compound response−DMSO response)/(positive control response−DMSO response)]*100
The maximum % activity achieved for the test compound at any tested concentration is presented in Table 1 along with the EC50 calculated using the following general sigmoidal curve with variable Hill slope equation (described as Model 42 in the Accelrys® Assay Explorer v3.3 software): y=(a−d)/(1+(x/c)^b)+d
General sigmoidal curve with concentration, response, top, bottom, EC50 and Hill slope.
This model describes a sigmoidal curve with an adjustable baseline, a. The equation can be used to fit curves where response is either increasing or decreasing with respect to the independent variable, “x”.
“x” is a concentration of drug under test.
“a” is the maximum response, and “d” is the minimum response
“c” is the inflection point (EC50) for the curve. That is, “y” is halfway between the lower and upper asymptotes when x=c.
“b” is the slope-factor or Hill coefficient. The sign of b is positive when the response increases with increasing dose and is negative when the response decreases with increasing dose (inhibition).

F508delCFTR, sequence (P13569 with tags, fused parts or gaps DEL508-508): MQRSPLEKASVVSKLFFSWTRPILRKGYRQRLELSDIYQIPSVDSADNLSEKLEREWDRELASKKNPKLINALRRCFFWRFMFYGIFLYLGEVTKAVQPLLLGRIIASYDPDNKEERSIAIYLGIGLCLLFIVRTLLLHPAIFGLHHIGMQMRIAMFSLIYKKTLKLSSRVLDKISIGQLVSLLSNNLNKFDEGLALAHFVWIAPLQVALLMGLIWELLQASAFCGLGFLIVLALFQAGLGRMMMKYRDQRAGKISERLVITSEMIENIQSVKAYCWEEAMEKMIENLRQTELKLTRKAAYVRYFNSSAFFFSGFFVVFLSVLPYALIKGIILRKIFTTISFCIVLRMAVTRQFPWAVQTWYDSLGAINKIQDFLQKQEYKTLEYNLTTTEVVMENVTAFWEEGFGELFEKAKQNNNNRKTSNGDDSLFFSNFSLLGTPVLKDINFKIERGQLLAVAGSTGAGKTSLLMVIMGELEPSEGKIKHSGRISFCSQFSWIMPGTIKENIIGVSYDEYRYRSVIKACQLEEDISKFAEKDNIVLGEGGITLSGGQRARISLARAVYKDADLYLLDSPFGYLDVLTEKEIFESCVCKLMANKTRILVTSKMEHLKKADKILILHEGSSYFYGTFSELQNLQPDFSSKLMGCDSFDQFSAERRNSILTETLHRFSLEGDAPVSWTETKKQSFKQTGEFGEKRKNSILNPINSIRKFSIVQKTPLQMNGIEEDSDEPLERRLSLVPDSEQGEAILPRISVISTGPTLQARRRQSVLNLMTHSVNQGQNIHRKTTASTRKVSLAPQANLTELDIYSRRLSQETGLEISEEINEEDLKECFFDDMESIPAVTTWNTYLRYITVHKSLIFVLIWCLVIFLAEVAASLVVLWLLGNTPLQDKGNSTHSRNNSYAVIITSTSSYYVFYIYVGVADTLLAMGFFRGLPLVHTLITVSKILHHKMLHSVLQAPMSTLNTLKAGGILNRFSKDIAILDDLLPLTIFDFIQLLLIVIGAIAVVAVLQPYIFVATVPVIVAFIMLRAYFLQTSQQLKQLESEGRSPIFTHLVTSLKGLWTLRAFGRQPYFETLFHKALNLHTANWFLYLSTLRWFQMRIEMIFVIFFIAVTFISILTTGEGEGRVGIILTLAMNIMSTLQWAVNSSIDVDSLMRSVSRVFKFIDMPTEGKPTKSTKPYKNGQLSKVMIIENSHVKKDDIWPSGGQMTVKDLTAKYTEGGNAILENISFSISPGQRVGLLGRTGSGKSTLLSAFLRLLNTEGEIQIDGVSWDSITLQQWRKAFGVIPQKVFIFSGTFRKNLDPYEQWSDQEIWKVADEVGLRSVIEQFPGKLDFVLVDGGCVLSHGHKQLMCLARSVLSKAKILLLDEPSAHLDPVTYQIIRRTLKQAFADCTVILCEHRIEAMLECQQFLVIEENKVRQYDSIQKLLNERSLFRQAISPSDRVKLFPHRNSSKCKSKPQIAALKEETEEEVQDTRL

Row | SMILES | pEC50 | Emax [%]
1 | CC1(C)CC(NC(=O)C2(c3ccc4c(c3)OC(F)(F)O4)CC2)c2ccc(O)cc2O1 (centres unmarked) [Example 124, 1-(2,2-difluoro-1,3-benzodioxol-5-yl)-N-(7-hydroxy-2,2-dimethyl-3,4-dihydro-2H-chromen-4-yl)cyclopropanecarboxamide] | 5.17 | 26
2 | CCOC(=O)[C@H]1C[C@H](NC(=O)C2(c3ccc4c(c3)OC(F)(F)O4)CC2)c2ccc(OC)cc2O1 (racemic) [Example 130, Ethyl rac-(2R,4S)-4-({[1-(2,2-difluoro-1,3-benzodioxol-5-yl)cyclopropyl]carbonyl}amino)-7-methoxy-3,4-dihydro-2H-chromene-2-carboxylate] | 5.59 | 79
3 | COC(=O)c1cccc([C@H]2C[C@@H](NC(=O)C3(c4ccc5c(c4)OC(F)(F)O5)CC3)c3ccc(OC)nc3O2)c1 (racemic) [Example 30, methyl rac-3-[(2R,4R)-4-({[1-(2,2-difluoro-1,3-benzodioxol-5-yl)cyclopropyl]carbonyl}amino)-7-methoxy-3,4-dihydro-2H-pyrano[2,3-b]pyridin-2-yl]benzoate] | 5.73 | 78
4 | CC(=O)N1CC2(CC(NC(=O)C3(c4ccc5c(c4)OC(F)(F)O5)CC3)c3ccc(F)cc3O2)C1 (centres unmarked) [Example 105, N-(1-acetyl-7′-fluoro-3′,4′-dihydrospiro[azetidine-3,2′-chromen]-4′-yl)-1-(2,2-difluoro-1,3-benzodioxol-5-yl)cyclopropanecarboxamide] | 5.13 | 34
5 | COc1ccc2c(c1)O[C@@H](C(=O)N(CCO)Cc1ccccc1)C[C@@H]2NC(=O)C1(c2ccc3c(c2)OC(F)(F)O3)CC1 (racemic) [Example 184, rac-(2R,4S)—N-benzyl-4-({[1-(2,2-difluoro-1,3-benzodioxol-5-yl)cyclopropyl]carbonyl}amino)-N-(2-hydroxyethyl)-7-methoxy-3,4-dihydro-2H-chromene-2-carboxamide] | 6.24 | 73
6 | COc1ccc2c(c1)O[C@@H](C(=O)NC1(C(F)(F)F)COC1)C[C@H]2NC(=O)C1(c2ccc3c(c2)OC(F)(F)O3)CC1 (racemic) [Example 173, rac-(2R,4R)-4-({[1-(2,2-difluoro-1,3-benzodioxol-5-yl)cyclopropyl]carbonyl}amino)-7-methoxy-N-[3-(trifluoromethyl)oxetan-3-yl]-3,4-dihydro-2H-chromene-2-carboxamide] | 5.67 | 27
7 | COc1ccc2c(c1)O[C@@H](C1CCCC(C(=O)O)C1)C[C@H]2NC(=O)C1(c2ccc3c(c2)OC(F)(F)O3)CC1 (stereo partly drawn) [Example 35, 3-[(2R,4R)-4-({[1-(2,2-difluoro-1,3-benzodioxol-5-yl)cyclopropyl]carbonyl}amino)-7-methoxy-3,4-dihydro-2H-chromen-2-yl]cyclohexanecarboxylic acid] | 5.94 | 82
8 | Cc1ccc2c(c1)O[C@@H](c1cccc(C(=O)NCC3(O)CCC3)c1)C[C@H]2NC(=O)C1(c2ccc3c(c2)OC(F)(F)O3)CC1 [Example 54, 3-[(2R,4R)-4-({[1-(2,2-difluoro-1,3-benzodioxol-5-yl)cyclopropyl]carbonyl}amino)-7-methyl-3,4-dihydro-2H-chromen-2-yl]-N-[(1-hydroxycyclobutyl)methyl]benzamide] | 6.07 | 92
9 | O=C(O)c1cccc([C@H]2C[C@@H](NC(=O)C3(c4ccc5c(c4)OC(F)(F)O5)CC3)c3ccc(O)cc3O2)c1 [Example 23, 3-[(2R,4R)-4-({[1-(2,2-difluoro-1,3-benzodioxol-5-yl)cyclopropyl]carbonyl}amino)-7-hydroxy-3,4-dihydro-2H-chromen-2-yl]benzoic acid] | ≤ 4.70 | 12
10 | COC(=O)C12CC([C@H]3C[C@@H](NC(=O)C4(c5ccc6c(c5)OC(F)(F)O6)CC4)c4ccc(OC)cc4O3)(C1)C2 (racemic) [Example 147, methyl rac-3-[(2R,4R)-4-({[1-(2,2-difluoro-1,3-benzodioxol-5-yl)cyclopropyl]carbonyl}amino)-7-methoxy-3,4-dihydro-2H-chromen-2-yl]bicyclo[1.1.1]pentane-1-carboxylate] | 5.69 | 78
11 | COc1ccc2c(c1)OC(C1CCCO1)CC2NC(=O)C1(c2ccc3c(c2)OC(F)(F)O3)CC1 (centres unmarked) [Example 126, 1-(2,2-difluoro-1,3-benzodioxol-5-yl)-N-[7-methoxy-2-(tetrahydrofuran-2-yl)-3,4-dihydro-2H-chromen-4-yl]cyclopropanecarboxamide] | 5.86 | 79
12 | COC(=O)c1ccc([C@H]2C[C@@H](NC(=O)C3(c4ccc5c(c4)OC(F)(F)O5)CC3)c3ccc(OC)cc3O2)c(F)c1 [Example 138, methyl 4-[(2R,4R)-4-({[1-(2,2-difluoro-1,3-benzodioxol-5-yl)cyclopropyl]carbonyl}amino)-7-methoxy-3,4-dihydro-2H-chromen-2-yl]-3-fluorobenzoate] | 7.30 | 119
13 | O=C(O)c1ccc([C@H]2C[C@@H](NC(=O)C3(c4ccc5c(c4)OC(F)(F)O5)CC3)c3ccccc3O2)nc1 (racemic) [Example 154, rac-6-[(2R,4R)-4-({[1-(2,2-difluoro-1,3-benzodioxol-5-yl)cyclopropyl]carbonyl}amino)-3,4-dihydro-2H-chromen-2-yl]pyridine-3-carboxylic acid] | 6.17 | 106
14 | COc1ccc2c(c1)OC(c1ccc(Cl)cc1)CC2NC(=O)C1(c2ccc3c(c2)OC(F)(F)O3)CC1 (centres unmarked) [Example 63, N-[2-(4-chlorophenyl)-7-methoxy-3,4-dihydro-2H-chromen-4-yl]-1-(2,2-difluoro-1,3-benzodioxol-5-yl)cyclopropanecarboxamide] | 6.20 | 106
15 | O=C(O)c1ccc2c(c1)OCCC2NC(=O)C1(c2ccc3c(c2)OC(F)(F)O3)CC1 (centres unmarked) [Example 42, 4-({[1-(2,2-difluoro-1,3-benzodioxol-5-yl)cyclopropyl]carbonyl}amino)-3,4-dihydro-2H-chromene-7-carboxylic acid] | ≤ 4.70 | 5
16 | O=C(O)c1cccc([C@H]2C[C@@H](NC(=O)C3(c4ccc5c(c4)OC(F)(F)O5)CC3)c3cccnc3O2)c1 (racemic) [Example 31, rac-3-[(2R,4R)-4-({[1-(2,2-difluoro-1,3-benzodioxol-5-yl)cyclopropyl]carbonyl}amino)-3,4-dihydro-2H-pyrano[2,3-b]pyridin-2-yl]benzoic acid] | 4.97 | 21
17 | COc1ccc2c(c1)O[C@H](c1ccc(OC)c(OC)c1)C[C@@H]2NC(=O)C1(c2ccc3c(c2)OC(F)(F)O3)CC1 [Example 4, 1-(2,2-difluoro-1,3-benzodioxol-5-yl)-N-[(2S,4S)-2-(3,4-dimethoxyphenyl)-7-methoxy-3,4-dihydro-2H-chromen-4-yl]cyclopropanecarboxamide] | 5.92 | 73
18 | Cc1ccc2c(c1)O[C@@H](c1cccc(C(=O)NCC(C)(C)O)c1)C[C@H]2NC(=O)C1(c2ccc3c(c2)OC(F)(F)O3)CC1 [Example 51, 3-[(2R,4R)-4-({[1-(2,2-difluoro-1,3-benzodioxol-5-yl)cyclopropyl]carbonyl}amino)-7-methyl-3,4-dihydro-2H-chromen-2-yl]-N-(2-hydroxy-2-methylpropyl)benzamide] | 6.01 | 83
19 | COC(=O)c1ccc([C@H]2C[C@@H](NC(=O)C3(c4ccc5c(c4)OC(F)(F)O5)CC3)c3ccc(O)cc3O2)cc1 [Example 127, methyl 4-[(2R,4R)-4-({[1-(2,2-difluoro-1,3-benzodioxol-5-yl)cyclopropyl]carbonyl}amino)-7-hydroxy-3,4-dihydro-2H-chromen-2-yl]benzoate] | 5.55 | 65
